# Reference: patent US9902696B2, “1,4-substituted piperidine derivatives” (Cephalon, Inc., priority 2015, dated 2018)
# Counter-ions that a name gives are not always drawn.
# Molecular target: T1, recombinant human baculovirus-expressed GST-tagged FASN (Homo sapiens, UniProt P49327)
# T1 construct: GST
# Assay: FASN enzyme activity assay, fluorescence-based detection of CoA with CPM
# Assay type: biochemical
# Details: 5 nM FASN, 150 μM NADPH, 10 μM acetyl-CoA, 25 μM malonyl-CoA, 90 minutes incubation; read-out: IC50 data for Compounds of Formulae I-V/V(a): Activity
# Method in brief: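 CoA product reacted with thiol-reactive CPM (diluted to 50 μM in 70% ethanol), read at 390/530 nm after 30 min. Preceding reaction: 90 min, 5 nM recombinant GST-FASN, 150 μM NADPH, 10 μM acetyl-CoA, 25 μM malonyl-CoA, pH 7.5 HEPES, 0.5% DMSO. IC50s fitted by nonlinear sigmoidal regression.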
# T1 sequence (P49327 whole entry): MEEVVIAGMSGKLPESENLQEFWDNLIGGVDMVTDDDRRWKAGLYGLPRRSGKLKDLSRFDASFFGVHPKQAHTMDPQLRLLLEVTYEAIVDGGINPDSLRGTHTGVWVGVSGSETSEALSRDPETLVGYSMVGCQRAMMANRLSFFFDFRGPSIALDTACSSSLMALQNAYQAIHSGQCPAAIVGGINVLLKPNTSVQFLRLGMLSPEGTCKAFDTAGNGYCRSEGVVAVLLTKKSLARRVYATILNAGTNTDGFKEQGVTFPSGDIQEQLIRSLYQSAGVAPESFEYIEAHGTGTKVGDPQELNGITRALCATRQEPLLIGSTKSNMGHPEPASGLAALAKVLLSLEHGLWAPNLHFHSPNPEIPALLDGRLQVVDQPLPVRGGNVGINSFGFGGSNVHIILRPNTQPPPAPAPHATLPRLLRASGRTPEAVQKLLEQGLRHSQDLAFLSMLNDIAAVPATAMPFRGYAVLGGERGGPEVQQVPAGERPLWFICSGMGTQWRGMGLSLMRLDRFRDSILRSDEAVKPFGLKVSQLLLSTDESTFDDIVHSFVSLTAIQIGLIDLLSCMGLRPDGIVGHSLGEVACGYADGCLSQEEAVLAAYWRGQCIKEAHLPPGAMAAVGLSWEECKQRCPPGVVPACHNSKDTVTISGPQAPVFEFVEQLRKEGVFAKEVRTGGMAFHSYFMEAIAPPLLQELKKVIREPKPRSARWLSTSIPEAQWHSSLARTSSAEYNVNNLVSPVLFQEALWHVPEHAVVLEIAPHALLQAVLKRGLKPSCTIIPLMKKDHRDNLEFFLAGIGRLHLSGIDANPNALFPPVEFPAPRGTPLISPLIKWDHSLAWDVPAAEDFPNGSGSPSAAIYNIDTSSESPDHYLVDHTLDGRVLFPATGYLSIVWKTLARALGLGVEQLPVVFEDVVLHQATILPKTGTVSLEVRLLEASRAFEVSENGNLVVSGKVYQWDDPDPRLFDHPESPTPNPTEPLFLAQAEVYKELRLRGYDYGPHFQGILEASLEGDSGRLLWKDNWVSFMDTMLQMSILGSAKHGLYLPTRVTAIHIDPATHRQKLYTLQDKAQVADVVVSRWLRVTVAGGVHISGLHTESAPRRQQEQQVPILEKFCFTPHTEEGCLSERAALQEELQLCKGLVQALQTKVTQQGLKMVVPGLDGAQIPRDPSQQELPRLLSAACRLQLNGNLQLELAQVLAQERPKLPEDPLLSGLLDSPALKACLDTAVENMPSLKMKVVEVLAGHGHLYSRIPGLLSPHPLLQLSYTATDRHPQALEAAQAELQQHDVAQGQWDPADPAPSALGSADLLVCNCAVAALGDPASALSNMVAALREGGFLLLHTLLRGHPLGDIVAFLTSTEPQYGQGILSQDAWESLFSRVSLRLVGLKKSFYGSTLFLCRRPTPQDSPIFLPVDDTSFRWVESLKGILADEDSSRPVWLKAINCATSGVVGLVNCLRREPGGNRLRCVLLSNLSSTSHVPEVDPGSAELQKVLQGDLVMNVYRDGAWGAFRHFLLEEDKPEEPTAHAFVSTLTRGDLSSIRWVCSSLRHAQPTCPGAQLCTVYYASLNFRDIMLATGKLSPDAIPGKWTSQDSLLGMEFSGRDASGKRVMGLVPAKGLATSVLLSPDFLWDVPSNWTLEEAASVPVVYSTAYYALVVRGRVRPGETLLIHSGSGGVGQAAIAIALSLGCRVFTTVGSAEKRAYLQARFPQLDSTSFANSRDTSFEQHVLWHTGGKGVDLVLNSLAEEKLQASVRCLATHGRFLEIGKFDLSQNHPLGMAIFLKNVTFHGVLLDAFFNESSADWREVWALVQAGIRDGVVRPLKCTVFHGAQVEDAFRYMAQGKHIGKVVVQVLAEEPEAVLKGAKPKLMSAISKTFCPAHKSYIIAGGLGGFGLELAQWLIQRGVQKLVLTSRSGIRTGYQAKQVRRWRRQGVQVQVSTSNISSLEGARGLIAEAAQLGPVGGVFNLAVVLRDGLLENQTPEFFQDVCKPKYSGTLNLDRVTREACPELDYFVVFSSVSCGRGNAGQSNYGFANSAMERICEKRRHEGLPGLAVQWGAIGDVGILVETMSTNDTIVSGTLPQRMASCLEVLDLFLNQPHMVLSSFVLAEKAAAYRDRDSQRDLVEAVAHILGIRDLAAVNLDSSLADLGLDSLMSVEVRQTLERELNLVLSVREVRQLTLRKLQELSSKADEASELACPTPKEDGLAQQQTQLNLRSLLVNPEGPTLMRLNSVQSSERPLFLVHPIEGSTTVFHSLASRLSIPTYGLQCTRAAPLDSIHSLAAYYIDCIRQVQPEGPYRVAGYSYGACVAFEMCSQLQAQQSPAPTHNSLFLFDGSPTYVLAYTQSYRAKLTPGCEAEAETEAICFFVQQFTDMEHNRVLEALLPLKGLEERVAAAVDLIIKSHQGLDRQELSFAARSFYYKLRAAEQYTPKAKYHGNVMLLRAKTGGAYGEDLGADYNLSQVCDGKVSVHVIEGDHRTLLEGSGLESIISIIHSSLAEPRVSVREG
row,SMILES,IC50 [nM]
1,"CCC(=O)N1CCC(Oc2ccc(-c3cnc4ccccc4c3N)cc2)CC1 [Example 231, 1-{4-[4-(4-Aminoquinolin-3-yl)-phenoxy]-piperidin-1-yl}-propan-1-one]",1000 to 10000
2,"CCC(=O)N1CCC(Oc2ccc(-c3cnc4ccccc4c3N(C)C)cc2)CC1 [Example 232, 1-{4-[4-(4-Dimethylaminoquinolin-3-yl)-phenoxy]-piperidin-1-yl}-propan-1-one]",1000 to 10000
3,"CN(C)c1c(-c2ccc(OC3CCN(C(=O)[C@H]4CCCO4)CC3)cc2)cnc2ccccc12 [Example 233, {4-[4-(4-Dimethylaminoquinolin-3-yl)-phenoxy]-piperidin-1-yl}-(R)-tetrahydrofuran-2-yl-methanone]",1000 to 10000
4,"CCC(=O)N1CCC(Oc2ccc(-c3cnc4ccccc4c3NC)cc2)CC1 [Example 235, 1-{4-[4-(4-Methylaminoquinolin-3-yl)-phenoxy]-piperidin-1-yl}-propan-1-one]",1000 to 10000
5,"CCC(=O)N1CCC(Oc2ccc(-c3cnc4ccccc4c3N3CCOCC3)cc2)CC1 [Example 237, 1-{4-[4-(4-Morpholin-4-yl-quinolin-3-yl)-phenoxy]-piperidin-1-yl}-propan-1-one]",1000 to 10000
6,"CCC(=O)N1CCC(Oc2ccc(-c3cnc4ccccc4c3N3CCN(C)CC3)cc2)CC1 [Example 239, 1-(4-{4-[4-(4-Methylpiperazin-1-yl)-quinolin-3-yl]-phenoxy}-piperidin-1-yl)-propan-1-one]",1000 to 10000
7,"CN1CCN(c2c(-c3ccc(OC4CCN(C(=O)[C@H]5CCCO5)CC4)cc3)cnc3ccccc23)CC1 [Example 240, (4-{4-[4-(4-Methylpiperazin-1-yl)-quinolin-3-yl]-phenoxy}-piperidin-1-yl)-(R)-tetrahydrofuran-2-yl-methanone]",1000 to 10000
8,"O=C1OCCN1C(=O)N1CCC(Oc2ccc(-c3cnc4ccccc4c3)cc2)CC1 [Example 241, 3-[4-(4-Quinolin-3-yl-phenoxy)-piperidine-1-carbonyl]-oxazolidin-2-one]",1000 to 10000
9,"CC(=O)CC(=O)N1CCC(Oc2ccc(-c3cnc4ccccc4c3)cc2)CC1 [Example 242, 1-[4-(4-Quinolin-3-yl-phenoxy)-piperidin-1-yl]-butane-1,3-dione]",1000 to 10000
10,"O=C1CCCN1C(=O)N1CCC(Oc2ccc(-c3cnc4ccccc4c3)cc2)CC1 [Example 243, 1-[4-(4-Quinolin-3-yl-phenoxy)-piperidine-1-carbonyl]-pyrrolidin-2-one]",1000 to 10000
11,"CCC(=O)N1CCC(Oc2ccc(-c3c[nH]c4ccccc34)cc2)CC1 [Example 246, 1-{4-[4-(1H-Indol-3-yl)-phenoxy]-piperidin-1-yl}-propan-1-one]",1000 to 10000
12,"CCC(=O)N1CCC(Oc2ccc(-c3n[nH]c4ccccc34)cc2)CC1 [Example 248, 1-{4-[4-(1H-Indazol-3-yl)-phenoxy]-piperidin-1-yl}-propan-1-one]",100 to 999
13,"CCC(=O)N1CCC(Oc2ccc(-c3ccc4cnn(C)c4c3)cc2)CC1 [Example 249, 1-{4-[4-(1-Methyl-1H-indazol-6-yl)-phenoxy]-piperidin-1-yl}-propan-1-one, TFA salt]",100 to 999
14,"CCC(=O)N1CCC(Oc2ccc(-c3ccc4cn(C)nc4c3)cc2)CC1 [Example 251, 1-{4-[4-(2-Methyl-2H-indazol-6-yl)-phenoxy]-piperidin-1-yl}-propan-1-one]",100 to 999

# More lines, now with the values ahead:
row,IC50 [nM],SMILES
1,1 to 99,"O=C(C1CC1)N1CCC(Oc2ccc(-c3ccc4cccnc4c3Cl)cc2F)CC1 [Example 222, {4-[4-(8-Chloroquinolin-7-yl)-2-fluorophenoxy]-piperidin-1-yl}-cyclopropyl-methanone]"
2,1 to 99,"O=C([C@H]1CCCO1)N1CCC(Oc2ccc(-c3ccc4cccnc4c3Cl)cc2F)CC1 [Example 223, {4-[4-(8-Chloroquinolin-7-yl)-2-fluorophenoxy]-piperidin-1-yl}-(R)-tetrahydrofuran-2-yl-methanone]"
3,1 to 99,"CCC(=O)N1CCC(Oc2ccc(-c3ccc4cccnc4c3Cl)cc2F)CC1 [Example 224, 1-{4-[4-(8-Chloroquinolin-7-yl)-2-fluorophenoxy]-piperidin-1-yl}-propan-1-one]"
4,1 to 99,"CCC(=O)N1CCC(Oc2ccc(-c3ccc4cccnc4c3C)cc2F)CC1 [Example 225, 1-{4-[2-Fluoro-4-(8-methylquinolin-7-yl)-phenoxy]-piperidin-1-yl}-propan-1-one]"
5,1 to 99,"Cc1c(-c2ccc(OC3CCN(C(=O)[C@H]4CCCO4)CC3)c(F)c2)ccc2cccnc12 [Example 226, {4-[2-Fluoro-4-(8-methylquinolin-7-yl)-phenoxy]-piperidin-1-yl}-(R)-tetrahydrofuran-2-yl-methanone]"
6,1 to 99,"Cc1c(-c2ccc(OC3CCN(C(=O)C4CC4)CC3)c(F)c2)ccc2cccnc12 [Example 227, Cyclopropyl-{4-[2-fluoro-4-(8-methylquinolin-7-yl)-phenoxy]-piperidin-1-yl}-methanone]"
7,100 to 999,"CCC(=O)N1CCC(Oc2ccc(-c3cnc4ccccc4c3C)cc2F)CC1 [Example 228, 1-{4-[2-Fluoro-4-(4-methylquinolin-3-yl)-phenoxy]-piperidin-1-yl}-propan-1-one]"
8,100 to 999,"Cc1c(-c2ccc(OC3CCN(C(=O)C4CC4)CC3)c(F)c2)cnc2ccccc12 [Example 229, Cyclopropyl-{4-[2-fluoro-4-(4-methylquinolin-3-yl)-phenoxy]-piperidin-1-yl}-methanone]"
9,1 to 99,"Cc1c(-c2ccc(OC3CCN(C(=O)[C@H]4CCCO4)CC3)c(F)c2)cnc2ccccc12 [Example 230, {4-[2-Fluoro-4-(4-methylquinolin-3-yl)-phenoxy]-piperidin-1-yl}-(R)-tetrahydrofuran-2-yl-methanone]"
10,100 to 999,"Nc1c(-c2ccc(OC3CCN(C(=O)[C@H]4CCCO4)CC3)cc2)cnc2ccccc12 [Example 234, {4-[4-(4-Aminoquinolin-3-yl)-phenoxy]-piperidin-1-yl}-(R)-tetrahydro-furan-2-yl-methanone]"
11,100 to 999,"CNc1c(-c2ccc(OC3CCN(C(=O)[C@H]4CCCO4)CC3)cc2)cnc2ccccc12 [Example 236, {4-[4-(4-Methylaminoquinolin-3-yl)-phenoxy]-piperidin-1-yl}-(R)-tetrahydrofuran-2-yl-methanone]"
12,100 to 999,"O=C([C@H]1CCCO1)N1CCC(Oc2ccc(-c3cnc4ccccc4c3N3CCOCC3)cc2)CC1 [Example 238, {4-[4-(4-Morpholin-4-yl-quinolin-3-yl)-phenoxy]-piperidin-1-yl}-(R)-tetrahydrofuran-2-yl-methanone]"
13,1 to 99,"N#Cc1ccc(-c2ccc(OC3CCN(C(=O)[C@H]4CCCO4)CC3)cc2)cc1 [Example 244, 4′-[1-((R)-Tetrahydrofuran-2-carbonyl)-piperidin-4-yloxy]-biphenyl-4-carbonitrile]"
14,100 to 999,"CCC(=O)N1CCC(Oc2ccc(-c3cc4ccccc4o3)cc2)CC1 [Example 245, 1-[4-(4-Benzofuran-2-yl-phenoxy)-piperidin-1-yl]-propan-1-one]"
15,100 to 999,"CCC(=O)N1CCC(Oc2ccc(-c3ccc4sccc4c3)cc2)CC1 [Example 247, 1-[4-(4-Benzo[b]thiophen-5-yl-phenoxy)-piperidin-1-yl]-propan-1-one]"
16,1 to 99,"CCC(=O)N1CCC(Oc2ccc(-c3cnc4sccc4c3)cc2)CC1 [Example 250, 1-[4-(4-Thieno[2,3-b]pyridin-5-yl-phenoxy)-piperidin-1-yl]-propan-1-one, TFA salt]"
